Experimental data as given in publication PMC6299835 (Toxicon : official journal of the International Society on …, 2018).
Entries after “also recorded” stand apart in the source; their conditions may differ. No end group written: not given here.

Tests used:
[1] = target: T1, MrgprC11 (Mus musculus, UniProt Q8CIP3); format: cell-based
T1 sequence (Q8CIP3 1-322): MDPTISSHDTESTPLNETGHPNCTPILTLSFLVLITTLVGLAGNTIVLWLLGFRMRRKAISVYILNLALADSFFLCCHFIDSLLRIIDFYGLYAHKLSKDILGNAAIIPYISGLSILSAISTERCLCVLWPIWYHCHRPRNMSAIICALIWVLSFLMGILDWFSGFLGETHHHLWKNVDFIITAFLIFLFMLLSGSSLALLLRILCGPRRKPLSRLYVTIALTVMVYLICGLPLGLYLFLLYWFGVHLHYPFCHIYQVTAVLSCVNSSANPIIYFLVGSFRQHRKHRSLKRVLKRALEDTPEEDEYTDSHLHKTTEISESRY

[2] = target: human MrgprX1 (hMrgprX1) (Homo sapiens, UniProt Q96LB2); test: cell-based; format: cell-based
[3] = tested on: hMrgprX1;Mrgpr-cluster∆−/− transgenic mouse; details: in vivo
[4] = tested on: mice; details: mouse, in vivo; cited from earlier work

human MrgprX1 (hMrgprX1), sequence (Q96LB2 whole entry, looked up): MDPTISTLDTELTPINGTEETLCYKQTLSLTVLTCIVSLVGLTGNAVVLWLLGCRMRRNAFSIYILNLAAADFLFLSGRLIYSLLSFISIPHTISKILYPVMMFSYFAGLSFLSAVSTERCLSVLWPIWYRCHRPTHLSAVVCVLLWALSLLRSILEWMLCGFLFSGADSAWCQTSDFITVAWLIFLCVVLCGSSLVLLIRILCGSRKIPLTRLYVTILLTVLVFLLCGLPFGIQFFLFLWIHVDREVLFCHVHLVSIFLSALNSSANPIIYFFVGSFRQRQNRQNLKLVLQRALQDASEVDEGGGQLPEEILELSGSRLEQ

Substance: HSGFLLAWSGPRNRFVRF-NH2 [CNF-Vc1]
- Activation of MrgprC11 [1]: activates
- Activation of hMrgprX1 [2]: activates
- EC50 [2]: 1.8 µM
- Itch-related scratching after intradermal cheek injection of peptide [3]: induces significant scratching
- Behaviour of mice after intracranial injection [4]: renders mice unable to move; also recorded: hypoactive behavior
